Tests used:
[1] = tested on: cardiac allograft (BalbC donor heart in B6 recipient); assay: Cardiac allograft rejection model (intraabdominal heterotopic vascularized cardiac transplantation between genetically mismatched mice); format: in vivo, mouse; settings: for survival after 20 days: BalbC heart into B6, after 20 days; for survival after 50 days: BalbC heart into B6, after 50 days
Procedure: The ability of an APQ inhibitor of the present disclosure to protect against transplant rejection is determined in an intraabdominal heterotopic vascularized cardiac transplantation model between genetically mismatched mice. Four conditions are compared: the use of an APQ4 inhibitor alone, the use of a CTLA4 Ig alone, the combination of an APQ4 inhibitor with a CTLA4 Ig, and a control.
The donor mouse (BalbC, fully genetically mismatched with respect to the recipient mouse which is B6, C57BL/6) is given a 10 mg/kg IP bolus of 2-((3,5-bis(trifluoromethyl)phenyl)carbamoyl)-4-chlorophenyl dihydrogen phosphate in TrisBase 30 minutes prior to surgery.
Before removing the heart, the donor is perfused with Ringer's solution containing 10 μM N-[3,5-bis(trifluoromethyl)phenyl]-5-chloro-2-hydroxybenzamide. After removal from the donor, the heart is stored at 0-4° C. for 8 hours in Ringer's solution containing 10 μM N-[3,5-bis(trifluoromethyl)phenyl]-5-chloro-2-hydroxybenzamide (Cold Ischemic Storage).
30 Minutes prior to surgery, the recipient mouse is given a 10 mg/kg IP bolus of 2-((3,5-bis(trifluoromethyl)phenyl)carbamoyl)-4-chlorophenyl dihydrogen phosphate in TrisBase. The heart is then transplanted into the recipient mouse (B6 mouse) using the vascularized heterotopic cardiac transplantation model. After closing, the recipient mouse receives 10 mg/kg IP injection of 2-((3,5-bis(trifluoromethyl)phenyl)carbamoyl)-4-chlorophenyl dihydrogen phosphate in TrisBase every 6 hours for 5 days.
The recipient mouse (B6) is administered a single dose of Belatacept IP at 10 mg/kg on the day of the transplant surgery as well as a single dose of Belatacept IP at 10 mg/kg 24 hours after surgery.
As a negative control, both the donor and recipient mice receive IP administration of TrisBase with neither an APQ4 inhibitor nor a CTLA4 Ig. Results
The recipient mice are monitored until their hearts stops beating.

[2] = tested on: explanted heart from BALB/c mice; assay: Cardiac explant experiment: apoptosis by Annexin V flow cytometry after 8 h Cold Ischemic Storage; design: species or system mouse; settings: 10 μM in Ringer's solution, 8 hours cold storage at 0-4° C.
Procedure: This experiment is a model for determining the extent of apoptosis occurring in an explanted heart from BALB/c mice. Hearts are perfused with Ringer's solution either supplemented with 10 μM of N-[3,5-bis(trifluoromethyl)phenyl]-5-chloro-2-hydroxybenzamide (Compound 1), or without such supplementation. The explanted hearts are then placed in Cold Ischemic Storage (at 0-4° C.) in their respective buffer solutions for 8 hours. The hearts are then photographed and triturated for analysis of apoptosis using Annexin V flow cytometry. Annexin V is used to label phosphatidylserine on the surface of cells, and this is a conventional marker for cells that have undergone apoptosis. […] In contrast, hearts maintained in the APQ4-inhibitor supplemented Ringer's solution show only about 8% apoptotic cells.

Compound | survival after 20 days [1] | survival after 50 days [1] | survival from about 60 days through the end of monitoring at 120 days ([1]; about 60 days to 120 days) | apoptotic cells [2] | survival from about 60 days through the end of monitoring at 150 days ([1]; about 60 days to 150 days)
O=C(Nc1cc(C(F)(F)F)cc(C(F)(F)F)c1)c1cc(Cl)ccc1OP(=O)(O)O [APQ4 inhibitor, 2-((3,5-bis(trifluoromethyl)phenyl)carbamoyl)-4-chlorophenyl dihydrogen phosphate] | about 30% | about 10% | about 5% |  | 
O=C(Nc1cc(C(F)(F)F)cc(C(F)(F)F)c1)c1cc(Cl)ccc1O [Compound 1, N-[3,5-bis(trifluoromethyl)phenyl]-5-chloro-2-hydroxybenzamide] |  |  |  | about 8% | 
Belatacept [CTLA4 Ig, reference compound] | approximately 60% | about 40% |  |  | about 13%
